{"source": "patent US20130184257A1", "about": "“PIPERIDINYL-SUBSTITUTED LACTAMS AS GPR119 MODULATORS” (priority 2010, published 2013)", "test_system": "modified version of the GPR119 receptor (94% identity to human receptor) stably expressed in HEK-293 cells", "test": "cAMP Production Assay (LANCE cAMP kit, TR-FRET)", "type": "cell-based", "conditions": "for cAMP production in HEK-293 cells: HEK-293 cells expressing modified GPR119, test compounds 0.2 nM to 10 μM, one-hour incubation at ambient temperature; for Fold over baseline: increase in cAMP relative to basal levels, 1.5-fold or greater = agonist activity", "procedure": "The assay utilized HEK-293 cells that stably express a modified version of the GPR119 receptor (94% identity to human receptor), under the control of a CMV promoter containing a tet-on element for tetracycline-inducible expression. GPR119 agonist-induced cyclic AMP (cAMP) production was measured in this cell line using the LANCE cAMP kit (Perkin Elmer, Waltham, Mass.). To generate a working stock of cells for the assay, cells were treated overnight with 1 μg/mL doxycycline at 37° C. in the presence of 5% CO2 to induce receptor expression. Cells were then harvested by enzymatic dissociation with 0.05% trypsin, resuspended in freezing medium (DMEM growth medium with 10% each of fetal bovine serum and DMSO), aliquoted and frozen at −80° C. On the day of the assay, frozen cells were thawed, washed 1× in PBS and resuspended in Hank's buffered salt solution (HBSS) containing 5 mM HEPES, 0.1% BSA and Alexa Fluor 647-conjugated anti-cAMP antibody (diluted 1:100). The cell suspension was then transferred to a Proxiplate Plus white 384-well assay plate (Perkin-Elmer) at 2000 cells/well. Test compounds at final concentrations ranging from 0.2 nM to 10 μM were added to the assay plate, followed by a one-hour incubation at ambient temperature (volume=10 μL/well). DMSO concentration was held constant at 0.5%. After incubation with test compounds, 10 μL of a detergent buffer containing a biotinylated cAMP/Europium-conjugated streptavidin complex (Europium-labeled cAMP tracer) were added to each well on the assay plate, followed by a 2-hour incubation at ambient temperature. During this incubation cAMP released from lysed cells competes with the Europium-labeled cAMP tracer for binding to the Alexa Fluor 647-conjugated antibody. […] Cellular cAMP levels were then determined by interpolation of raw signal data using a cAMP standard curve. Compounds were determined to have agonist activity if they stimulated a 1.5-fold or greater increase in cAMP relative to basal levels."}
{"smiles": "CS(=O)(=O)c1cc(F)c(O[C@@H]2CCN(C3CCN(c4noc(C(F)(F)F)n4)CC3)C2=O)cc1F", "note": "(single isomer, unassigned) [Example 66]", "values": [{"measurement": "cAMP production in HEK-293 cells", "result": 8.7, "unit": "nmol"}, {"measurement": "Fold over baseline", "result": 2.7}]}
{"smiles": "CC(C)c1noc(N2CCC(N3CC[C@H](Oc4cc(F)c(S(C)(=O)=O)cc4F)C3=O)CC2)n1", "note": "[Example 1, (S)-3-(2,5-difluoro-4-(methylsulfonyl)phenoxy)-1-(1-(3-isopropyl-1,2,4-oxadiazol-5-yl)piperidin-4-yl)pyrrolidin-2-one]", "values": [{"measurement": "cAMP production in HEK-293 cells", "result": 25.0, "unit": "nmol"}, {"measurement": "Fold over baseline", "result": 4.6}]}
{"smiles": "CC(C)c1noc(N2CCC(N3CC[C@H](Oc4ccc(S(C)(=O)=O)cc4F)C3=O)CC2)n1", "note": "[Example 2, (S)-3-(2-fluoro-4-(methylsulfonyl)phenoxy)-1-(1-(3-isopropyl-1,2,4-oxadiazol-5-yl)piperidin-4-yl)pyrrolidin-2-one]", "values": [{"measurement": "cAMP production in HEK-293 cells", "result": 27.4, "unit": "nmol"}, {"measurement": "Fold over baseline", "result": 5.6}]}
{"smiles": "CC(C)(C)c1noc(N2CCC(N3CC[C@H](Oc4cc(F)c(S(C)(=O)=O)cc4F)C3=O)CC2)n1", "note": "[Example 3, (S)-1-(1-(3-tert-butyl-1,2,4-oxadiazol-5-yl)piperidin-4-yl)-3-(2,5-difluoro-4-(methylsulfonyl)phenoxy)pyrrolidin-2-one]", "values": [{"measurement": "cAMP production in HEK-293 cells", "result": 21.7, "unit": "nmol"}, {"measurement": "Fold over baseline", "result": 3.3}]}
{"smiles": "CC(C)c1noc(N2CCC(N3CC[C@@H](Oc4cc(F)c(S(C)(=O)=O)cc4F)C3=O)CC2)n1", "note": "[Example 4, (R)-3-(2,5-difluoro-4-(methylsulfonyl)phenoxy)-1-(1-(3-isopropyl-1,2,4-oxadiazol-5-yl)piperidin-4-yl)pyrrolidin-2-one]", "values": [{"measurement": "cAMP production in HEK-293 cells", "result": 18.7, "unit": "nmol"}, {"measurement": "Fold over baseline", "result": 3.9}]}
{"smiles": "CC(C)(C)c1noc(N2CCC(N3CC[C@H](Oc4ccc(S(C)(=O)=O)cc4F)C3=O)CC2)n1", "note": "[Example 5, (S)-1-(1-(3-tert-butyl-1,2,4-oxadiazol-5-yl)piperidin-4-yl)-3-(2-fluoro-4-(methylsulfonyl)phenoxy)pyrrolidin-2-one]", "values": [{"measurement": "cAMP production in HEK-293 cells", "result": 22.7, "unit": "nmol"}, {"measurement": "Fold over baseline", "result": 4.8}]}
{"smiles": "CCc1noc(N2CCC(N3CC[C@H](Oc4ccc(S(C)(=O)=O)cc4F)C3=O)CC2)n1", "note": "[Example 6, (S)-1-(1-(3-ethyl-1,2,4-oxadiazol-5-yl)piperidin-4-yl)-3-(2-fluoro-4-(methylsulfonyl)phenoxy)pyrrolidin-2-one]", "values": [{"measurement": "cAMP production in HEK-293 cells", "result": 22.5, "unit": "nmol"}, {"measurement": "Fold over baseline", "result": 4.9}]}
{"smiles": "CC(C)c1noc(N2CCC(N3CCC[C@H](Nc4ccc(S(C)(=O)=O)cc4F)C3=O)CC2)n1", "note": "[Example 7, (S)-3-(2-fluoro-4-(methylsulfonyl)phenylamino)-1′-(3-isopropyl-1,2,4-oxadiazol-5-yl)-1,4′-bipiperidin-2-one]", "values": [{"measurement": "cAMP production in HEK-293 cells", "result": 27.8, "unit": "nmol"}, {"measurement": "Fold over baseline", "result": 5.7}]}
{"smiles": "CC(C)c1noc(N2CCC(N3CC[C@H](Nc4ccc(S(C)(=O)=O)cc4F)C3=O)CC2)n1", "note": "[Example 8, (S)-3-(2-fluoro-4-(methylsulfonyl)phenylamino)-1-(1-(3-isopropyl-1,2,4-oxadiazol-5-yl)piperidin-4-yl)pyrrolidin-2-one]", "values": [{"measurement": "cAMP production in HEK-293 cells", "result": 25.0, "unit": "nmol"}, {"measurement": "Fold over baseline", "result": 4.9}]}
{"smiles": "CS(=O)(=O)c1cc(F)c(N[C@H]2CCCN(C3CCN(c4nc(C(F)(F)F)no4)CC3)C2=O)cc1F", "note": "[Example 9, (S)-3-(2,5-difluoro-4-(methylsulfonyl)phenylamino)-1′-(3-trifluoromethyl-1,2,4-oxadiazol-5-yl)-1,4′-bipiperidin-2-one]", "values": [{"measurement": "cAMP production in HEK-293 cells", "result": 11.4, "unit": "nmol"}, {"measurement": "Fold over baseline", "result": 3.5}]}
{"smiles": "CS(=O)(=O)c1cc(F)c(N[C@H]2CCCN(C3CCN(c4nc(C(F)(F)F)no4)CC3)C2=O)c(F)c1", "note": "[Example 10, (S)-3-(2,6-difluoro-4-(methylsulfonyl)phenylamino)-1′-(3-trifluoromethyl-1,2,4-oxadiazol-5-yl)-1,4′-bipiperidin-2-one]", "values": [{"measurement": "cAMP production in HEK-293 cells", "result": 8.3, "unit": "nmol"}, {"measurement": "Fold over baseline", "result": 2.9}]}
{"smiles": "CS(=O)(=O)c1cc(F)c(O[C@H]2CCN(C3CCN(c4nc(C(F)(F)F)no4)CC3)C2=O)cc1F", "note": "[Example 11, (S)-1-(1-(3-trifluoromethyl-1,2,4-oxadiazol-5-yl)piperidin-4-yl)-3-(2,5-difluoro-4-(methylsulfonyl)phenoxy)pyrrolidin-2-one]", "values": [{"measurement": "cAMP production in HEK-293 cells", "result": 13.5, "unit": "nmol"}, {"measurement": "Fold over baseline", "result": 4.0}]}
{"smiles": "CC(C)c1nc(N2CCC(N3CCC[C@H](Nc4c(F)cc(S(C)(=O)=O)cc4F)C3=O)CC2)no1", "note": "[Example 12, (S)-3-(2,6-difluoro-4-(methylsulfonyl)phenylamino)-1′-(5-isopropyl-1,2,4-oxadiazol-3-yl)-1,4′-bipiperidin-2-one]", "values": [{"measurement": "cAMP production in HEK-293 cells", "result": 16.1, "unit": "nmol"}, {"measurement": "Fold over baseline", "result": 3.4}]}
{"smiles": "CS(=O)(=O)c1ccc(N[C@H]2CCN(C3CCN(c4noc(C(Cl)(Cl)Cl)n4)CC3)C2=O)c(F)c1", "note": "[Example 13, (S)-3-(2-fluoro-4-(methylsulfonyl)phenylamino)-1-(1-(5-(trichloromethyl)-1,2,4-oxadiazol-3-yl)piperidin-4-yl)pyrrolidin-2-one]", "values": [{"measurement": "cAMP production in HEK-293 cells", "result": 17.3, "unit": "nmol"}, {"measurement": "Fold over baseline", "result": 3.0}]}
{"smiles": "CC(C)c1nc(N2CCC(N3CCC[C@H](Nc4ccc(S(C)(=O)=O)cc4F)C3=O)CC2)no1", "note": "[Example 14, (S)-3-(2-fluoro-4-(methylsulfonyl)phenylamino)-1′-(5-isopropyl-1,2,4-oxadiazol-3-yl)-1,4′-bipiperidin-2-one]", "values": [{"measurement": "cAMP production in HEK-293 cells", "result": 18.9, "unit": "nmol"}, {"measurement": "Fold over baseline", "result": 3.5}]}
{"smiles": "CC(C)c1nc(N2CCC(N3CC[C@H](Nc4ccc(S(C)(=O)=O)cc4F)C3=O)CC2)no1", "note": "[Example 15, (S)-3-(2-fluoro-4-(methylsulfonyl)phenylamino)-1-(1-(5-isopropyl-1,2,4-oxadiazol-3-yl)piperidin-4-yl)pyrrolidin-2-one]", "values": [{"measurement": "cAMP production in HEK-293 cells", "result": 20.8, "unit": "nmol"}, {"measurement": "Fold over baseline", "result": 3.8}]}
{"smiles": "CS(=O)(=O)c1ccc(N[C@H]2CCN(C3CCN(c4noc(C(F)(F)F)n4)CC3)C2=O)c(F)c1", "note": "[Example 16, (S)-3-(2-fluoro-4-(methylsulfonyl)phenylamino)-1-(1-(5-(trifluoromethyl)-1,2,4-oxadiazol-3-yl)piperidin-4-yl)pyrrolidin-2-one]", "values": [{"measurement": "cAMP production in HEK-293 cells", "result": 17.0, "unit": "nmol"}, {"measurement": "Fold over baseline", "result": 4.3}]}
{"smiles": "CS(=O)(=O)c1cc(F)c(O[C@H]2CCN(C3CCN(c4noc(-c5ccccc5)n4)CC3)C2=O)cc1F", "note": "[Example 17, (S)-3-(2,5-difluoro-4-(methylsulfonyl)phenoxy)-1-(1-(5-phenyl-1,2,4-oxadiazol-3-yl)piperidin-4-yl)pyrrolidin-2-one]", "values": [{"measurement": "cAMP production in HEK-293 cells", "result": 28.3, "unit": "nmol"}, {"measurement": "Fold over baseline", "result": 4.8}]}
{"smiles": "CC(C)c1nc(N2CCC(N3CC[C@H](Oc4ccc(S(C)(=O)=O)cc4F)C3=O)CC2)no1", "note": "[Example 18, (S)-3-(2-fluoro-4-(methylsulfonyl)phenoxy)-1-(1-(5-isopropyl-1,2,4-oxadiazol-3-yl)piperidin-4-yl)pyrrolidin-2-one]", "values": [{"measurement": "cAMP production in HEK-293 cells", "result": 19.4, "unit": "nmol"}, {"measurement": "Fold over baseline", "result": 3.7}]}
{"smiles": "CC(C)c1nc(N2CCC(N3CC[C@H](Oc4cc(F)c(S(C)(=O)=O)cc4F)C3=O)CC2)no1", "note": "[Example 19, (S)-3-(2,5-difluoro-4-(methylsulfonyl)phenoxy)-1-(1-(5-isopropyl-1,2,4-oxadiazol-3-yl)piperidin-4-yl)pyrrolidin-2-one]", "values": [{"measurement": "cAMP production in HEK-293 cells", "result": 24.9, "unit": "nmol"}, {"measurement": "Fold over baseline", "result": 4.1}]}
{"smiles": "CC(C)c1nc(N2CCC(N3CC[C@H](Oc4c(F)cc(S(C)(=O)=O)cc4F)C3=O)CC2)no1", "note": "[Example 20, (S)-3-(2,6-difluoro-4-(methylsulfonyl)phenoxy)-1-(1-(5-isopropyl-1,2,4-oxadiazol-3-yl)piperidin-4-yl)pyrrolidin-2-one]", "values": [{"measurement": "cAMP production in HEK-293 cells", "result": 19.4, "unit": "nmol"}, {"measurement": "Fold over baseline", "result": 3.7}]}
{"smiles": "CS(=O)(=O)c1ccc(N[C@H]2CCN(C3CCN(c4noc(C(F)F)n4)CC3)C2=O)c(F)c1", "note": "[Example 21, (S)-1-(1-(5-(difluoromethyl)-1,2,4-oxadiazol-3-yl)piperidin-4-yl)-3-(2-fluoro-4-(methylsulfonyl)phenylamino)pyrrolidin-2-one]", "values": [{"measurement": "cAMP production in HEK-293 cells", "result": 21.0, "unit": "nmol"}, {"measurement": "Fold over baseline", "result": 2.8}]}
{"smiles": "CS(=O)(=O)c1cc(F)c(N[C@H]2CCN(C3CCN(c4noc(C(F)(F)F)n4)CC3)C2=O)c(F)c1", "note": "[Example 22, (S)-3-(2,6-difluoro-4-(methylsulfonyl)phenylamino)-1-(1-(5-(trifluoromethyl)-1,2,4-oxadiazol-3-yl)piperidin-4-yl)pyrrolidin-2-one]", "values": [{"measurement": "cAMP production in HEK-293 cells", "result": 17.6, "unit": "nmol"}, {"measurement": "Fold over baseline", "result": 3.6}]}
{"smiles": "CS(=O)(=O)c1cc(F)c(N[C@H]2CCN(C3CCN(c4noc(C(F)(F)F)n4)CC3)C2=O)cc1F", "note": "[Example 23, (S)-3-(2,5-difluoro-4-(methylsulfonyl)phenylamino)-1-(1-(5-(trifluoromethyl)-1,2,4-oxadiazol-3-yl)piperidin-4-yl)pyrrolidin-2-one]", "values": [{"measurement": "cAMP production in HEK-293 cells", "result": 19.2, "unit": "nmol"}, {"measurement": "Fold over baseline", "result": 3.6}]}
